Reference: ChEMBL document CHEMBL6114980, “Single or double lipid-modified ultra-short antimicrobial peptides for treating infections caused by resistant bacteria” (Eur J Med Chem, 2025)

Legend:
[1] = Stability in mouse serum assessed as half life measured after 1 hr by HPLC analysis; assay type: ADME, cell-free
[2] = Stability in mouse serum assessed as retention time measured after 1 hr by RP-HPLC analysis; assay type: ADME, cell-free
[3] = Acute toxicity in male BALB/c mouse assessed lethal dose administered as ip dose measured for 7 days; assay type: organism-based; conditions: in vivo, time 7 day
[4] = Acute toxicity in male BALB/c mouse assessed appearance of aberrant alveolar morphology at 20 to 30 mg/kg, ip measured after 7 days by H and E staining based analysis; assay type: organism-based; conditions: in vivo, 168 h, dose 20-30 mg/kg, time 7 day
[5] = Acute toxicity in male BALB/c mouse assessed appearance of lung congestion at 20 to 30 mg/kg, ip measured after 7 days by H and E staining based analysis; assay type: organism-based; conditions: in vivo, 168 h, dose 20-30 mg/kg, time 7 day
[6] = Acute toxicity in male BALB/c mouse assessed effect on lung at 20 to 30 mg/kg, ip measured after 7 days by H and E staining based analysis; assay type: organism-based; conditions: in vivo, 168 h, dose 20-30 mg/kg, time 7 day
[7] = Acute toxicity in male BALB/c mouse assessed infiltration of inflammatory cells in kidney at 20 to 30 mg/kg, ip measured after 7 days by H and E staining based analysis; assay type: organism-based; conditions: in vivo, 168 h, dose 20-30 mg/kg, time 7 day
[8] = Acute toxicity in male BALB/c mouse assessed infiltration of inflammatory cells in spleen at 20 to 30 mg/kg, ip measured after 7 days by H and E staining based analysis; assay type: organism-based; conditions: in vivo, 168 h, dose 20-30 mg/kg, time 7 day
[9] = Acute toxicity in male BALB/c mouse assessed appearance of augmented alveolar interstitial space at 20 to 30 mg/kg, ip measured after 7 days by H and E staining based analysis; assay type: organism-based; conditions: in vivo, 168 h, dose 20-30 mg/kg, time 7 day
[10] = Acute toxicity in male BALB/c mouse assessed effect on liver at 20 to 30 mg/kg, ip measured after 7 days by H and E staining based analysis; assay type: organism-based; conditions: in vivo, 168 h, dose 20-30 mg/kg, time 7 day
[11] = Acute toxicity in male BALB/c mouse assessed infiltration of inflammatory cells at 20 to 30 mg/kg, ip measured after 7 days by H and E staining based analysis; assay type: organism-based; conditions: in vivo, 168 h, dose 20-30 mg/kg, time 7 day

SMILES: CC(C)CCCCC(=O)N[C@@H](CCN)C(=O)N[C@H](C(=O)N[C@@H](CCN)C(=O)N[C@H]1CCNC(=O)[C@H]([C@@H](C)O)NC(=O)[C@H](CCN)NC(=O)[C@H](CCN)NC(=O)[C@H](CC(C)C)NC(=O)[C@@H](Cc2ccccc2)NC(=O)[C@H](CCN)NC1=O)[C@@H](C)O.CC[C@H](C)CCCCC(=O)N[C@@H](CCN)C(=O)N[C@H](C(=O)N[C@@H](CCN)C(=O)N[C@H]1CCNC(=O)[C@H]([C@@H](C)O)NC(=O)[C@H](CCN)NC(=O)[C@H](CCN)NC(=O)[C@H](CC(C)C)NC(=O)[C@@H](Cc2ccccc2)NC(=O)[C@H](CCN)NC1=O)[C@@H](C)O
- half-life [1]: 10.5 h
- Retention_time [2]: 13.545 min
- LD50 at 168 h [3]: 23.6 mg/kg
- Activity [4]: Toxic
- Activity [5]: Toxic
- Activity [6]: Toxic
- Activity [7]: Non-toxic
- Activity [8]: Non-toxic
- Activity [9]: Toxic
- Activity [10]: Toxic
- Activity [11]: Toxic
